In publication PMC7418559, “Synthesis and SAR of Tetracyclic Inhibitors of Protein Kinase CK2 Derived from Furocarbazole W16” (Chemmedchem, 2020):
Read-outs that look alike come from different tables or passages of the source.

Tests used:
CK2α/CK2β interaction = tested on: CK2α/CK2β interaction; design: method as in PMID 18553057; details: read-out: IC50, inhibition of CK2α/CK2β interaction (PPII); cited from earlier work
holoenzyme CK2α2β2 = molecular target: T1, holoenzyme CK2α2β2 (Homo sapiens, UniProt P68400); experiment: Capillary electrophoresis (CE) assay, enzyme inhibition of the holoenzyme; format: biochemical; details: read-out: Inhibition (%) of CK2α2β2
T1 construct: made in house; host or cells: E. coli BL21(DE3)
T1 sequence (P68400 whole entry): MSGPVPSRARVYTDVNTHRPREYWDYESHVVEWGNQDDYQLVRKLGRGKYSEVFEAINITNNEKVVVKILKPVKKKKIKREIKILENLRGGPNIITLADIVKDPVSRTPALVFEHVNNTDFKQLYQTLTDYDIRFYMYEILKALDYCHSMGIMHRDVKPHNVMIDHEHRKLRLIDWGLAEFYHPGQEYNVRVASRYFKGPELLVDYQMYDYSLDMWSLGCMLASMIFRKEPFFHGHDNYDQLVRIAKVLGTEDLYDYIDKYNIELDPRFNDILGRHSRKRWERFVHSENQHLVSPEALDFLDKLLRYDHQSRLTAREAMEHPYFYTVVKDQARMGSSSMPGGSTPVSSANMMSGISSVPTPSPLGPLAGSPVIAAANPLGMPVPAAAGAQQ
Procedure: (§1) In this assay, the decapeptide […], a known class I substrate suitable for assaying the kinase activity of both the CK2 holoenzyme and the catalytically active CK2 subunits,50, 58 was reacted with ATP in the presence of enzyme, which transfers a phosphate group to Ser7 of the decapeptide. Due to the additional negative charge of the phosphate group, the decapeptide and the phosphorylated decapeptide can be separated by CE.
Enzymatic activities with or without inhibitors were determined for the holoenzyme (CK2α2β2), the CK2α subunit, and the mutated CK2α′ ^C336S subunit by a capillary electrophoresis assay as described before.59 For this purpose, CK2α as well as (CK2α2β2) holoenzyme were purified after recombinant expression in E. coli BL21(DE3) and purified according the protocol of Grankowski et al.62 The mutated CK2α′ ^C336S subunit was purified by Ni‐NTA affinity chromatography using an N‐terminally attached His6 tag. […] For both CK2α subunits an assay buffer containing 100 mM NaCl instead of 60 mM NaCl as for the holoenzyme, and 20 mM MgCl2 instead of 10 mM MgCl2 was applied. For the holoenzyme, 1 μg was added, whereas for CK2α and the mutated CK2α′ ^C336S subunit 0.25 μg was added each. For each compound inhibition was determined three times independently at an initial concentration of 10 μM and the mean value and the standard deviation (SD) were calculated.

[1] = molecular target: T2, mutated CK2α’ ^C336S subunit (Homo sapiens, UniProt P19784, C336S); experiment: Capillary electrophoresis (CE) assay, enzyme inhibition of the mutated CK2α′ C336S subunit; format: biochemical; details: c=10 μM, CE assay, mean±SD of three experiments, n.s.=not significant; for inhibition at 10 µM: read-out: Inhibition (%) of CK2α’ ^C336S
T2 construct: His6 (N); made in house
T2 sequence (P19784 1-350 C336S): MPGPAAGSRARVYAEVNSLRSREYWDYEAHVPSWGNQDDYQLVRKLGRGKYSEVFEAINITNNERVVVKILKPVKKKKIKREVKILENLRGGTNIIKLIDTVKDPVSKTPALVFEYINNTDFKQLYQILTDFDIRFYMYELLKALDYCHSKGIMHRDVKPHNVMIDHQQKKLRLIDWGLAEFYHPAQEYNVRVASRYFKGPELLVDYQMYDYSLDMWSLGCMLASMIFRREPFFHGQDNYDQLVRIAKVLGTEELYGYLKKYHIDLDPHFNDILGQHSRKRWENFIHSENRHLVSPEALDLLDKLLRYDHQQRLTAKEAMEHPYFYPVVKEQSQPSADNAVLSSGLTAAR
Source text: as §1, with “CE. […] The data on the inhibition of the kinase activities of CK2α2β2, CK2α subunit and mutated CK2α’ ^C336S subunit are summarized in Table 1.” for “CE.”
(§2) Enzymatic activities with or without inhibitors were determined for the holoenzyme (CK2α2β2), the CK2α subunit, and the mutated CK2α′ ^C336S subunit by a capillary electrophoresis assay as described before.59 For this purpose, CK2α as well as (CK2α2β2) holoenzyme were purified after recombinant expression in E. coli BL21(DE3) and purified according the protocol of Grankowski et al.62 The mutated CK2α′ ^C336S subunit was purified by Ni‐NTA affinity chromatography using an N‐terminally attached His6 tag. Successful purification was controlled by SDS‐PAGE. Enzymatic activity was determined in the presence of 60 μM ATP and 114 μM of the substrate peptide […]. For both CK2α subunits an assay buffer containing 100 mM NaCl instead of 60 mM NaCl as for the holoenzyme, and 20 mM MgCl2 instead of 10 mM MgCl2 was applied. For the holoenzyme, 1 μg was added, whereas for CK2α and the mutated CK2α′ ^C336S subunit 0.25 μg was added each. For each compound inhibition was determined three times independently at an initial concentration of 10 μM and the mean value and the standard deviation (SD) were calculated.

monomeric CK2α = tested on: monomeric CK2α; design: method as in PMID 18553057; details: read-out: IC50, inhibition of the catalytic activity of monomeric CK2α; cited from earlier work
CK2α subunit = molecular target: T3, CK2α subunit (Homo sapiens, UniProt P68400); experiment: Capillary electrophoresis (CE) assay, enzyme inhibition of the CK2α subunit; format: biochemical; details: for Inhibition (%) of CK2α: c=10 μM, CE assay, mean±SD of three experiments, n.s.=not significant
T3 construct: made in house; host or cells: E. coli BL21(DE3)
T3 sequence (P68400 whole entry): as the sequence (P68400 whole entry) above
Source text: as §1, with “CE. […] The data on the inhibition of the kinase activities of CK2α2β2, CK2α subunit and mutated CK2α’ ^C336S subunit are summarized in Table 1.” for “CE.”
as §2

[2] = molecular target: T4, CK2α/CK2β interaction (CK2α^1−335 / fluorescently labeled CK2β^1−193) (Homo sapiens, UniProt P68400)
T4 sequence (P68400 1-335): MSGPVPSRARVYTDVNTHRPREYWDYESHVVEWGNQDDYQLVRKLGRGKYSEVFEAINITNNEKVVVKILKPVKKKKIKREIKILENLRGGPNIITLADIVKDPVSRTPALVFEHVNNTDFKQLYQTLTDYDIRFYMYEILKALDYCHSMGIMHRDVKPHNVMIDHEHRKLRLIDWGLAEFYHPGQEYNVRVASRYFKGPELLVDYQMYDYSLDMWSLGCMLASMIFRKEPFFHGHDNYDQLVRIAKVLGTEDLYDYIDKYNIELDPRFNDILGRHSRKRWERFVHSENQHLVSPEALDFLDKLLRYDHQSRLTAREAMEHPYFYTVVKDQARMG

CK2 = tested on: CK2; design: method as in PMID 29759799; details: cited from earlier work
[3] = c=10 μM, CE assay, mean±SD of three experiments, n.s.=not significant

| Ki [2] [µM] | inhibition at 10 µM (holoenzyme CK2α2β2; [3]) [%] | Inhibition (%) of CK2α (CK2α subunit) | Inhibition (%) of CK2α’ ^C336S [1] | Compound | IC50 (CK2α/CK2β interaction) [µM] | inhibition at 10 µM (holoenzyme CK2α2β2) [%] | inhibition at 10 µM [1] [%] | IC50 (monomeric CK2α) [µM] | inhibition at 10 µM (CK2α subunit; read-out: Inhibition (%) of CK2α) [%] | Inhibition of CK2 activity (CK2) |
| --- | --- | --- | --- | --- | --- | --- | --- | --- | --- | --- |
| – | – | – | – | COc1cc([C@H]2c3c([nH]c4ccccc34)[C@@H](C(=O)N3C(=O)OC[C@@H]3Cc3ccccc3)[C@H]3C(=O)OC(=O)[C@@H]23)cc(OC)c1OC [(+)‐3 a, (3aR,4S,10S,10aS)‐4‐{[(S)‐4‐Benzyl‐2‐oxo‐1,3‐oxazolidin‐3‐yl]carbonyl}‐10‐(3,4,5‐trimethoxyphenyl)‐4,5,10,10a‐tetrahydrofuro[3,4‐b]carbazole‐1,3(3aH)‐dione] | […] | 84 ± 5 | 85 ± 13 | 20 | […] | – |
| 8.5 ± 2.9 | 29 ± 14 | n.s. | – | COc1cc([C@@H]2c3c([nH]c4ccccc34)[C@H](C(=O)N3C(=O)OC[C@H]3Cc3ccccc3)[C@@H]3C(=O)N(C)C(=O)[C@H]23)cc(OC)c1OC [(−)‐10 a, (3aR,4R,10R,10aR)‐4‐{[(R)‐4‐Benzyl‐2‐oxo‐1,3‐oxazolidin‐3‐yl]carbonyl}‐2‐methyl‐10‐(3,4,5‐trimethoxyphenyl)‐4,5,10,10a‐tetrahydropyrrolo[3,4‐b]carbazole‐1,3(2H,3aH)‐dione] | – | – | 30 ± 23 | – | – | – |
| 3.7 ± 0.7 | 15 ± 11 | n.s. | n.s. | COc1cc([C@@H]2c3c([nH]c4ccccc34)[C@H](C(=O)N3C(=O)OC[C@@H]3Cc3ccccc3)[C@@H]3C(=O)N(C)C(=O)[C@H]23)cc(OC)c1OC [(−)‐10 b] | – | – | – | – | – | – |
| – | – | – | – | NCc1cc(Cl)cc(-c2cccc3[nH]ccc23)c1 [CAM187] | – | – | – | – | – | did not significantly inhibit CK2 activity |
